Assay results taken from patent US7968526B2, “Antisense oligonucleotides directed to ribonucleotide reductase R2 and uses thereof in the treatment of cancer” (Lorus Therapeutics Inc., priority 2003, dated 2011).
“Also recorded” adds a separate entry of the source.

Experiments:
Format in all cases: in vivo, human cells in mice
[1] = tested on: A2058 human melanoma cells; experiment: A2058 melanoma xenograft in CD-1 nude mice, combination with DTIC (1.6); details: A2058 (melanoma), CD-1; SEQ ID NO:1 10 mg/kg i.v. every other day; DTIC 80 mg/kg i.v. days 6-10
Procedure: After 52 days the mice were sacrificed and the tumours weighed. […] Mitoxantrone was administered intravenously once at the beginning of the treatments at a dose of 2 mg/kg (FIG. 4A) or once a week for four weeks at a reduced dose of 0.8 mg/kg (FIG. 4B). All treatments were stopped at day 50 (FIG. 4A) or 48 (FIG. 4B), respectively. […] Mitoxantrone was administered intravenously once at the beginning of the treatments at a dose of 2 mg/kg (FIG. 5A) or once a week for four weeks at a reduced dose of 0.8 mg/kg (FIG. 5B). All treatments were stopped at day 42 (FIG. 5A) or 38 (FIG. 5B), respectively. […] A2058 is a metastatic melanoma cell line. […] All treatments were stopped at day 24. […] Taxol was administered intravenously once a week at a dose of 10 mg/kg for three (FIG. 7A) or four weeks (FIG. 7C). Doxorubicin was administered intravenously once a week at a dose of 5 mg/kg for first three weeks (FIG. 7A) or for two weeks (FIG. 7C). All treatments were stopped at day 33 (FIG. 7A) or at day 26 (FIG. 7C), respectively. […] In FIG. 7C, antitumour activities were estimated by the inhibition of tumour volume, which was measured with calipers. Each point represents mean tumour volume calculated from 10 animals per experimental group. […] Taxol was administered intravenously once a week for first three weeks and intraperitoneally once a week for next two weeks at a dose of 10 mg/kg. Cisplatin was administered intravenously once a week for first three weeks and intraperitoneally once a week for next two weeks at a dose of 4 mg/kg. All treatments were stopped at day 40. Antitumour activities were estimated by the inhibition of tumour volume, which was measured with caliper. Each point represents mean tumour volume calculated from 9 animals per experimental group.

[2] = tested on: BxPC-3 human pancreatic carcinoma cells; experiment: BxPC-3 gemcitabine resistant pancreatic carcinoma xenograft in CD-1 nude mice; details: Gemcitabine 100 mg/kg i.v. every three days
Procedure: BxPC-3 is a gemcitabine resistant call line. […] Gemcitabine was administered intravenously every three days at a dose of 100 mg/kg. Antitumour activities were estimated by the inhibition of tumour volume, which was measured with caliper. Each point represents mean tumour volume calculated from 10 animals per experimental group. […] Hela S3 is a hydroxyurea resistant cell line. […] Hydroxyurea was administered intraperitoneally every day at a dose of 250 mg/kg for 10 days. Cisplatin was administered intravenously once a week for three weeks at a dose of 4 mg/kg. Antitumour activities were estimated by the inhibition of tumour volume, which was measured with caliper. Each point represents mean tumour volume calculated from 10 animals per experimental group. […] Cisplatin was administered intravenously once a week for three weeks at a dose of 4 mg/kg. Taxol was administered intravenously once a week for three weeks at a dose of 10 mg/kg. Antitumour activities were estimated by the inhibition of tumour volume, which was measured with caliper. Each point represents mean tumour volume calculated from 10 animals per experimental group. […] Taxol was administered i.p. once a week at a dose of 10 mg/kg. Antitumour activities were estimated by the inhibition of tumour volume (FIG. 12A), which was measured with calipers. Each point represents mean tumour volume calculated from 10 animals per experimental group. Animals were sacrificed and tumour weights taken at the end of the study (FIG. 12C). […] Cisplatin was administered intravenously once a week for four weeks at a dose of 4 mg/kg. Taxol was administered intravenously once a week for four weeks at a dose of 20 mg/kg. Antitumour activities were estimated by the inhibition of tumour volume, which was measured with caliper. Each point represents mean tumour volume calculated from 9-10 animals per experimental group. […] Cisplatin was administered intravenously once a week for four weeks at a dose of 4 mg/kg. Antitumour activities were estimated by the inhibition of tumour volume, which was measured with caliper. Each point represents mean tumour volume calculated from 10 animals per experimental group. At the end of the study the animals were sacrificed and tumours weighed. […] Taxol was administered i.p. once a week at a dose of 10 mg/kg. Anti-tumour activity was estimated by the inhibition of tumour volume, which was measured with caliper. Each point represents mean tumour volume calculated from 10 animals per experimental group. […] Antitumour activities were estimated by the inhibition of tumour volume, which was measured with caliper. Each point represents mean tumour volume calculated from 10 animals per experimental group. Tumour weights were measured after animals were sacrificed at the end of the treatment. […]

[3] = tested on: A498 human kidney cancer cells; experiment: A498 kidney tumour xenograft in SCID mice, controls and chemotherapeutics (Example 7); details: oligonucleotides 10 mg/kg/2 days i.v., 5-FU 13 mg/kg/day×5, vinblastine 1 mg/kg/week, gemcitabine 100 mg/kg/week
Source text: CD-1 athymic female nude mice, BALB/c nu/nu nude mice, SCID, and SCID beige mice were purchased from Charles River Laboratories (Montreal, Canada) and experiments were typically initiated when the mice were 6-7 weeks old. […] Each experimental group typically contained 10 mice. After the size of tumour reached a mean tumour volume of 50-100 mm^3, treatment was initiated. […] Anti-tumour activity was estimated by the measurement of tumour volume with a calliper at two-three day intervals. Tumour volume was calculated by a formula L×W×H/2, where L indicates length, W indicates width and H indicates height. Within 24 hours after the last treatment, the animals were sacrificed and tumour and body weights were measured. Results of statistical analyses of the data are presented as P values in the figure legends.
Three additional treatment groups received: 5-FU (13 mg/kg/day×5), vinblastine (1 mg/kg/week) and gemcitabine (100 mg/kg/week). […] Caliper measurements at 1-week intervals were used to calculate tumour volumes. Each point in FIG. 28C represents mean tumour volume calculated from 10 animals per experimental group (with the exception of SEQ ID NO: 1 which was 8 animals). […] After 54 days the mice were sacrificed and the A498 tumours weighed. Each bar represents the mean tumour weight and standard error calculated for each treatment group.

[4] = tested on: DU145 human prostatic cancer cells; experiment: DU145 prostatic tumour xenograft in SCID mice, combination with mitoxantrone (1.5); details: for Tumour weight as % of saline control: DU145 (prostatic), SCID, SEQ ID NO:1 10 mg/kg i.v. every other day, mitoxantrone i.v.
Procedure: (§1) After 52 days the mice were sacrificed and the tumours weighed. […] In both experiments, PC-3 human prostatic cancer cells (1×10^7 cells in 100 μl of PBS) were subcutaneously injected into the right flank of 6-7 weeks old male SCID mice. After the size of tumour reached an approximate volume of 50 mm^3, 14 days post tumour cell injection, SEQ ID NO: 1 was administered by bolus infusion into the tail vein every other day at 10 mg/kg 18 times (FIG. 4A) or 17 times (FIG. 4B), respectively. Control animals received saline alone for the same period. Antitumour effect of SEQ ID NO:1 was further compared to that of mitoxantrone (novantrone) alone or in combination. Mitoxantrone was administered intravenously once at the beginning of the treatments at a dose of 2 mg/kg (FIG. 4A) or once a week for four weeks at a reduced dose of 0.8 mg/kg (FIG. 4B). All treatments were stopped at day 50 (FIG. 4A) or 48 (FIG. 4B), respectively. A day after the last treatment, tumours were excised from the animals and their weights were measured. […] In both experiments, DU145 human prostatic cancer cells (1×10^7 cells in 100 μl of PBS) were subcutaneously injected into the right flank of 6-7 weeks old male SCID mice. After the size of tumour reached an approximate volume of 50 mm^3, 13 (FIG. 5A) or 11 (FIG. 5B) days post tumour cell injection, SEQ ID NO:1 was administered by bolus infusion into the tail vein every other day at 10 mg/kg 15 times (FIG. 5A) or 14 times (FIG. 5B), respectively. Control animals received saline alone for the same period. Antitumour effect of SEQ ID NO:1 was further compared to that of mitoxantrone (novantrone) alone or in combination. Mitoxantrone was administered intravenously once at the beginning of the treatments at a dose of 2 mg/kg (FIG. 5A) or once a week for four weeks at a reduced dose of 0.8 mg/kg (FIG. 5B). All treatments were stopped at day 42 (FIG. 5A) or 38 (FIG. 5B), respectively. A day after the last treatment, tumours were excised from the animals and their weights were measured.

[5] = tested on: PC-3 human prostatic cancer cells; experiment: PC-3 prostatic tumour xenograft in SCID mice, combination with mitoxantrone (1.4)
Procedure: as §1

Structure (SMILES): CN(C)/N=N/c1[nH]cnc1C(N)=O [DTIC, dacarbazine, reference compound]
- Tumour weight as % of saline control [1]: 68%

Structure (SMILES): Nc1ccn([C@@H]2O[C@H](CO)[C@@H](O)C2(F)F)c(=O)n1 [Gemcitabine, reference compound]
- Tumour weight as % of saline control ([2]; BxPC-3 (pancreatic), Gemcitabine resistant, CD-1, SEQ ID NO:1 10 mg/kg i.v. every other day 17 times): 83%
- Antitumour effect (tumour volume, FIG. 9) ([2]; BxPC-3 gemcitabine resistant, CD-1 nude mice, SEQ ID NO:1 10 mg/kg i.v. every other day): ineffective against Gemcitabine-resistant tumour
- Effect on tumour growth (volume and weight) [3]: ineffective in stabilization of the tumours; also recorded: at best, a delay in the rate of tumour growth

Structure (SMILES): O=C1c2c(O)ccc(O)c2C(=O)c2c(NCCNCCO)ccc(NCCNCCO)c21 [Novantrone, mitoxantrone]
- Tumour weight as % of saline control ([4]; first of two printed values (two independent experiments)): 40%
- Tumour weight as % of saline control ([4]; second of two printed values (two independent experiments)): 60%
- Antitumour effect (tumour weight, FIG. 5B) ([4]; DU145, SCID mice, SEQ ID NO:1 10 mg/kg i.v. every other day 14 times, mitoxantrone 0.8 mg/kg i.v. once a week for four weeks): significant delay of tumour growth
- Tumour weight as % of saline control ([5]; PC-3 (prostatic), SCID, SEQ ID NO:1 10 mg/kg i.v. every other day, mitoxantrone (novantrone) i.v., table does not say which of two experiments): 57%
- Antitumour effect (tumour weight, FIG. 4B) ([5]; PC-3, SCID mice, SEQ ID NO:1 10 mg/kg i.v. every other day 17 times, mitoxantrone 0.8 mg/kg i.v. once a week for four weeks): significant delay of tumour growth
